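These data come from cells grown in 96-well plates and exposed to compound for 48 hours at five concentrations. GI50 is the concentration that inhibits growth by half.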 Calls of active or inactive are those of the source. Rule as the data show it: active = GI50 up to about 1.1 µM and inactive = higher.
Assays:
Assay in all cases: NCI anticancer screen, dose series, 48 h
[1] = tested on: PC-3
[2] = tested on: IGROV-1
[3] = tested on: T47D
[4] = tested on: LXFL 529
[5] = tested on: NCI/ADR-RES
[6] = tested on: OVCAR-4
[7] = tested on: OVCAR-3
[8] = tested on: Hs-578T
[9] = tested on: DLD-1
[10] = tested on: HCT-15
[11] = tested on: M14
[12] = tested on: BT-549
[13] = tested on: KM12
[14] = tested on: UO-31
[15] = tested on: SK-MEL-28
[16] = tested on: DU-145
[17] = tested on: A498
[18] = tested on: Malme-3M
[19] = tested on: SK-MEL-5
[20] = tested on: OVCAR-5
[21] = tested on: SN12C
[22] = tested on: MCF7
[23] = tested on: SF-268
[24] = tested on: MDA-N
[25] = tested on: RXF 631
[26] = tested on: NCI-H522
[27] = tested on: A549
[28] = tested on: NCI-H226
[29] = tested on: RPMI-8226
[30] = tested on: DMS-273
[31] = tested on: MDA-MB-231
[32] = tested on: SF-295
[33] = tested on: EKVX
[34] = tested on: COLO 205
[35] = tested on: SW-620
[36] = tested on: SK-OV-3
[37] = tested on: K562
[38] = tested on: UACC-257
[39] = tested on: 786-0
[40] = tested on: DMS-114
[41] = tested on: TK-10
[42] = tested on: MDA-MB-435
[43] = tested on: HOP-18
[44] = tested on: SR
[45] = tested on: MOLT-4
[46] = tested on: LOX IMVI
[47] = tested on: HL-60
[48] = tested on: CCRF-CEM
[49] = tested on: HCC 2998
[50] = tested on: UACC-62
[51] = tested on: NCI-H23
[52] = tested on: NCI-H460
[53] = tested on: HT-29
[54] = tested on: SNB-75
[55] = tested on: ACHN
[56] = tested on: SNB-19
[57] = tested on: OVCAR-8
[58] = tested on: CAKI-1
[59] = tested on: HOP-92
[60] = tested on: KM-20L2
[61] = tested on: SNB-78
[62] = tested on: RXF 393
[63] = tested on: HOP-62
[64] = tested on: M19-MEL
[65] = tested on: HCT-116
[66] = tested on: SF-539

Q: Which GI50 [1] does the source give for `SC1=NC2(CCCCCC2)NN1c1ccccc1` here?
A: 29.6 µM (inactive)

Q: And the GI50 [2]?
A: > 39.4 µM (inactive)

Q: And the GI50 [3]?
A: 0.597 µM (active)

Q: And the GI50 [4]?
A: 0.0407 µM (active)

Q: And the GI50 [5]?
A: > 100 µM (inactive)

Q: And the GI50 [6]?
A: 2.16 µM (inactive)

Q: What about the GI50 [7] of the same molecule?
A: 9.91 µM (inactive)

Q: And the GI50 [8]?
A: > 100 µM (inactive)

Q: And the GI50 [9]?
A: 0.34 µM (active)

Q: And the GI50 [10]?
A: 0.168 µM

Q: What about the GI50 [11] of the same molecule?
A: 1.61 µM (inactive)

Q: What about the GI50 [12] of the same molecule?
A: > 100 µM (inactive)

Q: And the GI50 [13]?
A: 0.291 µM (active)

Q: And the GI50 [14]?
A: 0.168 µM (active)

Q: What about the GI50 [15] of the same molecule?
A: 1.11 µM (active)

Q: What about the GI50 [16] of the same molecule?
A: 0.0708 µM (active)

Q: And the GI50 [17]?
A: 50.5 µM (inactive)

Q: What about the GI50 [18] of the same molecule?
A: 16.4 µM (inactive)

Q: And the GI50 [19]?
A: 93.3 µM (inactive)

Q: What about the GI50 [20] of the same molecule?
A: 1.91 µM (inactive)

Q: What about the GI50 [21] of the same molecule?
A: > 27.3 µM (inactive)

Q: And the GI50 [22]?
A: 1.36 µM (inactive)

Q: And the GI50 [23]?
A: 0.184 µM (active)

Q: And the GI50 [24]?
A: 3.09 µM (inactive)

Q: What about the GI50 [25] of the same molecule?
A: 2.81 µM (inactive)

Q: And the GI50 [26]?
A: > 100 µM (inactive)

Q: And the GI50 [27]?
A: 0.206 µM (active)

Q: And the GI50 [28]?
A: > 100 µM (inactive)

Q: What about the GI50 [29] of the same molecule?
A: 0.769 µM (active)

Q: What about the GI50 [30] of the same molecule?
A: 0.166 µM (active)

Q: And the GI50 [31]?
A: > 100 µM (inactive)

Q: And the GI50 [32]?
A: 0.0471 µM (active)

Q: What about the GI50 [33] of the same molecule?
A: 36.5 µM (inactive)

Q: What about the GI50 [34] of the same molecule?
A: 0.104 µM (active)

Q: And the GI50 [35]?
A: 1.78 µM (inactive)

Q: What about the GI50 [36] of the same molecule?
A: > 100 µM (inactive)

Q: What about the GI50 [37] of the same molecule?
A: 0.019 µM (active)

Q: What about the GI50 [38] of the same molecule?
A: 23.9 µM (inactive)

Q: And the GI50 [39]?
A: > 30.6 µM (inactive)

Q: What about the GI50 [40] of the same molecule?
A: 0.273 µM (active)

Q: What about the GI50 [41] of the same molecule?
A: > 28.6 µM (inactive)

Q: And the GI50 [42]?
A: 3.61 µM (inactive)

Q: And the GI50 [43]?
A: > 100 µM (inactive)

Q: And the GI50 [44]?
A: 28.8 µM (inactive)

Q: And the GI50 [45]?
A: 0.891 µM (active)

Q: And the GI50 [46]?
A: 0.82 µM (active)

Q: What about the GI50 [47] of the same molecule?
A: 0.0867 µM (active)

Q: And the GI50 [48]?
A: 0.0664 µM (active)

Q: And the GI50 [49]?
A: 0.386 µM (active)

Q: What about the GI50 [50] of the same molecule?
A: 0.0208 µM (active)

Q: And the GI50 [51]?
A: 9.23 µM (inactive)

Q: And the GI50 [52]?
A: 0.979 µM (active)

Q: And the GI50 [53]?
A: 1.35 µM (inactive)

Q: And the GI50 [54]?
A: > 66.8 µM (inactive)

Q: What about the GI50 [55] of the same molecule?
A: 0.0785 µM (active)

Q: And the GI50 [56]?
A: > 41 µM (inactive)

Q: And the GI50 [57]?
A: 15.5 µM (inactive)

Q: What about the GI50 [58] of the same molecule?
A: 0.218 µM (active)

Q: And the GI50 [59]?
A: > 100 µM (inactive)

Q: How did the GI50 [2] turn out when `COc1cc2c(cc1O)CC13CCC(=O)N1CCc1cc(OC)c(O)c-2c13` (stereo unspecified) was run?
A: > 68.1 µM (inactive)

Q: What about the GI50 [60] of the same molecule?
A: > 68.1 µM (inactive)

Q: What about the GI50 [4] of the same molecule?
A: > 68.1 µM (inactive)

Q: What about the GI50 [6] of the same molecule?
A: > 68.1 µM (inactive)

Q: What about the GI50 [7] of the same molecule?
A: > 68.1 µM (inactive)

Q: What about the GI50 [9] of the same molecule?
A: > 68.1 µM (inactive)

Q: And the GI50 [10]?
A: > 68.1 µM

Q: And the GI50 [11]?
A: > 68.1 µM (inactive)

Q: What about the GI50 [14] of the same molecule?
A: > 68.1 µM (inactive)

Q: What about the GI50 [15] of the same molecule?
A: > 68.1 µM (inactive)

Q: And the GI50 [17]?
A: > 68.1 µM (inactive)

Q: What about the GI50 [18] of the same molecule?
A: > 68.1 µM (inactive)

Q: What about the GI50 [19] of the same molecule?
A: > 68.1 µM (inactive)

Q: And the GI50 [20]?
A: > 68.1 µM (inactive)

Q: And the GI50 [21]?
A: > 68.1 µM (inactive)

Q: What about the GI50 [61] of the same molecule?
A: > 68.1 µM (inactive)

Q: What about the GI50 [23] of the same molecule?
A: > 68.1 µM (inactive)

Q: What about the GI50 [25] of the same molecule?
A: 39.9 µM (inactive)

Q: What about the GI50 [62] of the same molecule?
A: > 68.1 µM (inactive)

Q: What about the GI50 [27] of the same molecule?
A: > 68.1 µM (inactive)

Q: What about the GI50 [63] of the same molecule?
A: > 68.1 µM (inactive)

Q: What about the GI50 [64] of the same molecule?
A: > 68.1 µM (inactive)

Q: And the GI50 [28]?
A: > 68.1 µM (inactive)

Q: And the GI50 [29]?
A: > 68.1 µM (inactive)

Q: What about the GI50 [32] of the same molecule?
A: > 68.1 µM (inactive)

Q: What about the GI50 [33] of the same molecule?
A: > 68.1 µM (inactive)

Q: What about the GI50 [34] of the same molecule?
A: > 68.1 µM (inactive)

Q: And the GI50 [35]?
A: > 68.1 µM (inactive)

Q: And the GI50 [37]?
A: > 68.1 µM (inactive)

Q: And the GI50 [38]?
A: > 68.1 µM (inactive)

Q: What about the GI50 [39] of the same molecule?
A: > 68.1 µM (inactive)

Q: And the GI50 [40]?
A: > 68.1 µM (inactive)

Q: What about the GI50 [41] of the same molecule?
A: > 68.1 µM (inactive)

Q: And the GI50 [43]?
A: > 68.1 µM (inactive)

Q: And the GI50 [65]?
A: > 68.1 µM (inactive)

Q: What about the GI50 [44] of the same molecule?
A: > 68.1 µM (inactive)

Q: And the GI50 [45]?
A: > 68.1 µM (inactive)

Q: What about the GI50 [46] of the same molecule?
A: > 68.1 µM (inactive)

Q: And the GI50 [47]?
A: > 68.1 µM (inactive)

Q: And the GI50 [48]?
A: > 68.1 µM (inactive)

Q: What about the GI50 [66] of the same molecule?
A: > 68.1 µM (inactive)

Q: And the GI50 [49]?
A: > 68.1 µM (inactive)

Q: What about the GI50 [50] of the same molecule?
A: > 68.1 µM (inactive)

Q: And the GI50 [51]?
A: > 68.1 µM (inactive)

Q: And the GI50 [52]?
A: > 68.1 µM (inactive)

Q: And the GI50 [53]?
A: > 68.1 µM (inactive)

Q: What about the GI50 [54] of the same molecule?
A: > 68.1 µM (inactive)

Q: And the GI50 [55]?
A: > 68.1 µM (inactive)

Q: And the GI50 [56]?
A: > 68.1 µM (inactive)

Q: And the GI50 [57]?
A: > 68.1 µM (inactive)

Q: And the GI50 [58]?
A: > 68.1 µM (inactive)

Q: What about the GI50 [59] of the same molecule?
A: > 68.1 µM (inactive)

Reference: ChEMBL document CHEMBL1201862, “PubChem BioAssay data set” (2004)
